Results taken from publication PMC12492365, “Drug Interaction of Dasatinib with Thymoquinone: A Pharmacokinetic Study in Rats” (International Journal of Medical Sciences, 2025).
Read-outs that look alike come from different tables or passages of the source.

Tests used:
[1] = Pharmacokinetic study of oral dasatinib with and without TQ pretreatment, plasma UHPLC-MS/MS, non-compartmental analysis; assay type: in vivo, Wistar rats; conditions: rats
Method: (§1) The adult male Wistar rats (204-226 g) were procured from the College of Pharmacy Animal Care and Use Facility, King Saud University, Riyadh, Saudi Arabia. The animals were hold in polycarbonate rat cages, with 12h light/dark cycle at 25 ± 2 °C. All groups were allowed ad libitum before the study. This study was conducted following the ethical guidelines approved by the facility and the study was approved by the King Saud University College of Pharmacy Research Ethics Committee (KSU-SE-21-58). Overnight fasted animals (n=24) were divided into four groups (n=6 per group). Group I (normal controls) and Group II were administered normal saline by oral gavage for seven consecutive days. On the seventh day, Group II received a single dose of DAS (25 mg/kg, p.o.) via oral gavage. Group III received TQ (40 mg/kg, p.o.) via oral gavage for seven days, and two hours after the final TQ dose, DAS (25 mg/kg, p.o.) was administered by oral gavage. Group IV received TQ (40 mg/kg/day) by oral gavage for seven consecutive days. For the PK study, blood samples were collected via a tail vein in heparinized vacutainers at various time intervals (i.e., 0, 0.5, 1, 2, 4, 6, 8, 10, 12 h post DAS dosing). The collected blood was centrifuged at 3000 ×g for 10 minutes to separate the plasma, which was then collected and stored in Eppendorf tubes for UHPLC-MS/MS analysis. After completion of the study, the animals were euthanized, and liver and lumen tissues were collected for Western blot analysis. DAS concentrations in plasma samples were determined using an UHPLC-MS/MS method according to a previously described method. Briefly, DAS and ibrutinib (IBR;(internal standard, IS) were separated on an Acquity BEH C18 column. Prior to sample analysis, the method underwent validation for precision and accuracy. A non-compartmental analysis was empoyed to calculate the PK parameters of DAS using the PK Solver software (version 1.01).
(§2) All data are expressed as the mean ± SEM. The pharmacokinetic and protein expression data were compared using one-way analysis of variance followed by Dunnett's test and a p value of ≤0.05 was used for statistical significance.

CYP3A2 = test: Western blot of CYP3A2 protein expression in liver and lumen tissues; assay type: in vivo, Wistar rats; conditions: for Elevation of CYP3A2 protein expression: DAS 25 mg/kg p.o. vs normal controls; for Suppression of CYP3A2 upregulation: TQ 40 mg/kg p.o. seven days in DAS-treated rats vs DAS group
Method: as §1, with “On the seventh day, Group II received a single dose of DAS (25 mg/kg, p.o.) via oral gavage. Group III received TQ (40 mg/kg, p.o.) via oral gavage for seven days, and two hours after the final TQ dose, DAS (25 mg/kg, p.o.) was administered by oral gavage.” left out, “For the PK study, blood samples were collected via a tail vein in heparinized vacutainers at various time intervals (i.e., 0, 0.5, 1, 2, 4, 6, 8, 10, 12 h post DAS dosing).” left out, “DAS concentrations in plasma samples were determined using an UHPLC-MS/MS method according to a previously described method.” left out, “1.01). The liver and intestine tissues were homogenized in RIPA lysis buffer and incubated for 30 minutes, followed by centrifugation at 10,000 rpm for 20 minutes at 4 °C. The supernatants were then collected and stored at -20 °C. Total protein content was determined using the bicinchoninic acid (BCA) assay. Protein expression of CYP3A2, Pgp, and BCRP proteins were analyzed according to previously published methods, [17], [34], [35]. All data are expressed as the mean ± SEM.” for “1.01).”

Pgp = test: Western blot of Pgp protein expression in liver and lumen tissues; assay type: in vivo, Wistar rats; conditions: for Increase of Pgp expression: DAS 25 mg/kg p.o. vs untreated animals; for Suppression of Pgp expression: TQ pretreatment in DAS-treated rats vs DAS group
Method: as §1
(§3) The liver and intestine tissues were homogenized in RIPA lysis buffer and incubated for 30 minutes, followed by centrifugation at 10,000 rpm for 20 minutes at 4 °C. The supernatants were then collected and stored at -20 °C. Total protein content was determined using the bicinchoninic acid (BCA) assay. Protein expression of CYP3A2, Pgp, and BCRP proteins were analyzed according to previously published methods, [17], [34], [35].
as §2

BCRP = test: Western blot of BCRP protein expression in liver and lumen tissues; assay type: in vivo, Wistar rats; conditions: for Induction of BCRP protein expression: oral DAS vs untreated animals; for Inhibition of BCRP protein expression: TQ pretreatment in the DAS treatment group
Method: as §1, §3, §2

rats = conditions: 30 mg/kg, no reference given; cited from earlier work
wistar rats = test system: wistar rats; design: method as in PMID 23440704, PMID 32273798; conditions: ref [46], [47], cited from earlier work
[2] = DAS 25 mg/kg p.o. alone, mean ±SEM
[3] = DAS+TQ vs DAS alone, positive = increase
[4] = TQ pretreatment vs control (DAS alone), given as decrease
[5] = male, Wistar, rat, plasma, po, DAS 25 mg/kg p.o. alone, mean ±SEM

SMILES: Cc1nc(Nc2ncc(C(=O)Nc3c(C)cccc3Cl)s2)cc(N2CCN(CCO)CC2)n1 [DAS, Dasatinib]
- AUMC0-∞ [1, 2]: 29259.52 ±3397.55 ng/ml*h^2
- CL [1, 2]: 0.01 ±0.00 (mg/kg)/(ng/ml)/h
- Vd [1, 2]: 0.11 ±0.00 (mg/kg)/(ng/ml)
- % Change in AUC0-t of DAS [1, 3]: 166.53%
- % Change in AUMC0-∞ of DAS [1, 3]: 0.34%
- % Change in Cmax of DAS [1, 3]: 213.26%
- % Change in Kel of DAS [1, 3]: 93.85%
- % Change in Tmax of DAS [1, 3]: 83.33%
- Decrease (reduction) in CL of DAS [1, 4]: 36.35%
- Decrease (reduction) in Vd of DAS [1, 4]: 67.70%
- Decrease in MRT of DAS [1, 4]: 49.12%
- AUC(0-inf) [1, 5]: 2.5 ± 0.113 µg·h/mL
- AUC(0-t) [1, 5]: 1.61 ± 0.0289 µg·h/mL
- Cmax [1, 5]: 0.246 ± 0.00334 µg/mL
- MRT [1, 5]: 11.5 ± 0.81 h
- half-life [1, 5]: 7.77 ± 0.65 h
- k el [1, 5]: 2.5e-05 s⁻¹
- Elevation of CYP3A2 protein expression (CYP3A2; liver): 91.84%
- Elevation of CYP3A2 protein expression (CYP3A2; lumen): 93.47%
- Increase of Pgp expression (Pgp; liver): 75.62%
- Increase of Pgp expression (Pgp; lumen): 77.19%
- Induction of BCRP protein expression (BCRP; liver): 74.82%
- Induction of BCRP protein expression (BCRP; lumen): 76.05%
- Tolerability in acute toxicity studies (rats): well tolerated

SMILES: CC1=CC(=O)C(C(C)C)=CC1=O [TQ, 2-Methyl-5-(propan-2-yl)cyclohexa-2,5-diene-1,4-dione]
- Effect on CYP3A2 expressions (CYP3A2; TQ alone 40 mg/kg/day seven days vs normal controls): did not significantly altered
- Suppression of CYP3A2 upregulation (CYP3A2; liver): 53.98%
- Suppression of CYP3A2 upregulation (CYP3A2; lumen): 40.30%
- Effect on liver and lumen Pgp protein expressions (Pgp; TQ pretreatment alone vs untreated animals): did not affect
- Suppression of Pgp expression (Pgp; liver): 47.97%
- Suppression of Pgp expression (Pgp; lumen): 37.72%
- Effect on liver and lumen BCRP protein levels (BCRP; TQ treatment alone vs normal controls): no significant changes
- Inhibition of BCRP protein expression (BCRP; liver): 50.48%
- Inhibition of BCRP protein expression (BCRP; lumen): 48.46%
- maximum tolerated dose (MTD) (wistar rats; i.p. injection, female rats): 15 mg/kg
- maximum tolerated dose (MTD) (wistar rats; i.p. injection, male rats): 22.5 mg/kg
- maximum tolerated dose (MTD) (wistar rats; oral, both male and female rats): 250 mg/kg
